Experimental data from ChEMBL document CHEMBL5120822, “Inhibition of the P2X7/NLRP3 Inflammasome Signaling Pathway by Deacetylgedunin from Toona sinensis” (J Nat Prod, 2022).
Calls of active or inactive are those of the source.

Experiments:
J774.A1 [1] = experiment: Antiinflammatory activity against LPS/ATP-induced […] cells assessed as inhibition of ROS release at 20 uM incubated for 1 hrs followed by LPS stimulation for 12 hrs and ATP addition for 0.5 hrs by DCFH-DA staining based flow cytometry analysis; format: functional, cell-based; conditions: Mus musculus, time 13.5 hrs
[2] = target: NACHT, LRR and PYD domains-containing protein 3 (Homo sapiens) (UniProt Q96P20); experiment: (§1) Inhibition of NLRP3 inflammasome activation in PMA-differentiated and LPS/ATP-stimulated human THP-1 cells assessed as suppression of P2X7 expression at 5 to 20 uM incubated for 1 hrs followed by LPS stimulation for 12 hrs and ATP addition for 0.5 hrs by Western blot analysis; format: cell-based; conditions: dose 5-20 µM, time 13.5 hrs, DDE = dose-dependent effect
Sequence of NACHT, LRR and PYD domains-containing protein 3 (Homo sapiens) (Q96P20 whole entry, the tested form may be a part): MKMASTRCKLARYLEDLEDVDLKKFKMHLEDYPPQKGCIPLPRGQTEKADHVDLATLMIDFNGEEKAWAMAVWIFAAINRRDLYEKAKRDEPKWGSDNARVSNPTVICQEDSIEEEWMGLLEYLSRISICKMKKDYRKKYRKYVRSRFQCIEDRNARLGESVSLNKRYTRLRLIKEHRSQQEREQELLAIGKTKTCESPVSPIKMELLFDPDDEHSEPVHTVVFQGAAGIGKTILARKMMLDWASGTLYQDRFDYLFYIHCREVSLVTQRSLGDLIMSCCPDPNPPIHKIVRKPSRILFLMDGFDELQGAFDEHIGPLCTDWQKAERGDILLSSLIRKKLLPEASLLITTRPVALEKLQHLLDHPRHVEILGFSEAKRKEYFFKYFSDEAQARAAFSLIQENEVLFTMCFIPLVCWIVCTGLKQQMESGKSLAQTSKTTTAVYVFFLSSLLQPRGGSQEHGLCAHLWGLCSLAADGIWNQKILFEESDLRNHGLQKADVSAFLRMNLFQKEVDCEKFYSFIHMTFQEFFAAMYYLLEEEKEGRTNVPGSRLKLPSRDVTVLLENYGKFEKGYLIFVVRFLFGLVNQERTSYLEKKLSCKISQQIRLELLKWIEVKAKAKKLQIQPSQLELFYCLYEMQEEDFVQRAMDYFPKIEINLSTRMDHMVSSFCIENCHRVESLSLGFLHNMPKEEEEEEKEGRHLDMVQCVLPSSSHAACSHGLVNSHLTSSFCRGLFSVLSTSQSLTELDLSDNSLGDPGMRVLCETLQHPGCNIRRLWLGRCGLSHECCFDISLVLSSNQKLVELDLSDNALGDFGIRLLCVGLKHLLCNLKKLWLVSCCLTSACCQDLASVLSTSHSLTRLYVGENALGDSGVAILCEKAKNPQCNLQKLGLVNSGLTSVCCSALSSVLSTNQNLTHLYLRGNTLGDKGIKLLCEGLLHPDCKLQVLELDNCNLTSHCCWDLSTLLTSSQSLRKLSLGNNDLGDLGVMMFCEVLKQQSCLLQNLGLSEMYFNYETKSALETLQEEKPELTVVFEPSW

[3] = target: NACHT, LRR and PYD domains-containing protein 3 (Homo sapiens) (UniProt Q96P20); experiment: Inhibition of NLRP3 inflammasome activation in LPS/ATP-induced human THP-1 cells assessed as suppression of P2X7 expression at 5 to 20 uM preincubated for 1 hrs followed by LPS for 12 hrs and ATP 0.5 hrs in presence of A438079 by Western blot analysis; format: cell-based; conditions: dose 5-20 µM, time 13.5 hrs
[4] = target: T1, P2X purinoceptor 7 (Homo sapiens) (UniProt Q99572); experiment: Inhibition of pronase mediated degradation of P2X7 in human THP-1 cells assessed as increase in P2X7 expression at 20 to 80 uM by Western blot analysis; format: cell-based; conditions: dose 20-80 µM
T1 sequence (whole entry): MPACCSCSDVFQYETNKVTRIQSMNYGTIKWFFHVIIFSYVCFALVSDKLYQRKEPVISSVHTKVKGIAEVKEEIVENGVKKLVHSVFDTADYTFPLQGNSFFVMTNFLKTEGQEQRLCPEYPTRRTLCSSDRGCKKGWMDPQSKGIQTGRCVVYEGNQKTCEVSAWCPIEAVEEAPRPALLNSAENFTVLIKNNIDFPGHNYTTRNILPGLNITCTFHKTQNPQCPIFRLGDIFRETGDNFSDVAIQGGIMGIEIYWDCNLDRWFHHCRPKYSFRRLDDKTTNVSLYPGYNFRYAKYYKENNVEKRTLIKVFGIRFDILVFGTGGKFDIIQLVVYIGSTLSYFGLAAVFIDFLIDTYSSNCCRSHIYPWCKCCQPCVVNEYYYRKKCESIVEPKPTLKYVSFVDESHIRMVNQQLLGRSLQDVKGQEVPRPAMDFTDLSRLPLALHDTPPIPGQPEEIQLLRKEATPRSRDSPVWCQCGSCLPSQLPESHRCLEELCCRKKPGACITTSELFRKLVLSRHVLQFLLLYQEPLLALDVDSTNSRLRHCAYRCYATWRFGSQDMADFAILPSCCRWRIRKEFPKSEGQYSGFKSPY

[5] = target: NACHT, LRR and PYD domains-containing protein 3 (Homo sapiens) (UniProt Q96P20); experiment: Inhibition of NLRP3 inflammasome activation in PMA-differentiated and LPS/ATP-stimulated human THP-1 cells assessed as decrease in IL-1beta expression at 5 to 20 uM incubated for 1 hrs followed by LPS stimulation for 12 hrs and ATP addition for 0.5 hrs by western blot analysis; format: cell-based; conditions: dose 5-20 µM, time 13.5 hrs
[6] = target: NACHT, LRR and PYD domains-containing protein 3 (Homo sapiens) (UniProt Q96P20); experiment: Inhibition of NLRP3 inflammasome activation in PMA-differentiated and LPS/NIG-stimulated human THP-1 cells assessed as decrease of ASC oligomerization at 20 uM incubated for 1 hrs followed by LPS stimulation for 12 hrs and NIG addition for 2 hrs by DAPI staining based immunofluorescence analysis; format: cell-based; conditions: time 15.0 hrs
THP-1 [7] = experiment: Antiinflammatory activity against PMA-differentiated and LPS/NIG stimulated human THP-1 cells assessed as increase in cell viability at 5 to 20 uM incubated for 1 hrs followed by LPS stimulation for 12 hrs and NIG addition for 2 hrs by CCK8 assay; format: functional, cell-based; conditions: dose 5-20 µM, time 15.0 hrs
THP-1 [8] = experiment: Antiinflammatory activity against PMA-differentiated and LPS/MSU stimulated human THP-1 cells assessed as increase in cell viability at 5 to 20 uM incubated for 1 hrs followed by LPS stimulation for 12 hrs and MSU addition for 6 hrs by CCK8 assay; format: functional, cell-based; conditions: dose 5-20 µM, time 19.0 hrs
THP-1 [9] = experiment: Antiinflammatory activity against PMA-differentiated and LPS/ATP stimulated human THP-1 cells assessed as increase in cell viability at 5 to 20 uM incubated for 1 hrs followed by LPS stimulation for 12 hrs and ATP addition for 0.5 hrs by LDH assay; format: functional, cell-based; conditions: dose 5-20 µM, time 13.5 hrs
THP-1 [10] = experiment: Antiinflammatory activity against PMA-differentiated and LPS/NIG stimulated human THP-1 cells assessed as increase in cell viability at 5 to 20 uM incubated for 1 hrs followed by LPS stimulation for 12 hrs and NIG addition for 2 hrs by LDH assay; format: functional, cell-based; conditions: dose 5-20 µM, time 15.0 hrs
[11] = target: NACHT, LRR and PYD domains-containing protein 3 (Homo sapiens) (UniProt Q96P20); experiment: Inhibition of NLRP3 inflammasome activation in PMA-differentiated and LPS/NIG-stimulated human THP-1 cells assessed as decrease in caspase-1 expression at 20 uM incubated for 1 hrs followed by LPS stimulation for 12 hrs and NIG addition for 2 hrs by western blot analysis; format: cell-based; conditions: time 15.0 hrs
[12] = target: NACHT, LRR and PYD domains-containing protein 3 (Homo sapiens) (UniProt Q96P20); experiment: Inhibition of NLRP3 inflammasome activation in PMA-differentiated and LPS/MSU-stimulated human THP-1 cells assessed as decrease in caspase-1 expression at 20 uM incubated for 1 hrs followed by LPS stimulation for 12 hrs and MSU addition for 6 hrs by western blot analysis; format: cell-based; conditions: time 19.0 hrs
[13] = target: NACHT, LRR and PYD domains-containing protein 3 (Homo sapiens) (UniProt Q96P20); experiment: Inhibition of NLRP3 inflammasome activation in PMA-differentiated and LPS/NIG-stimulated human THP-1 cells assessed as decrease in pro-IL-1beta expression at 20 uM incubated for 1 hrs followed by LPS stimulation for 12 hrs and NIG addition for 2 hrs by western blot analysis; format: cell-based; conditions: time 15.0 hrs
[14] = target: NACHT, LRR and PYD domains-containing protein 3 (Homo sapiens) (UniProt Q96P20); experiment: Inhibition of NLRP3 inflammasome activation in PMA-differentiated and LPS/MSU-stimulated human THP-1 cells assessed as decrease in pro-IL-1beta expression at 20 uM incubated for 1 hrs followed by LPS stimulation for 12 hrs and MSU addition for 6 hrs by western blot analysis; format: cell-based; conditions: time 19.0 hrs
[15] = target: NACHT, LRR and PYD domains-containing protein 3 (Homo sapiens) (UniProt Q96P20); experiment: Inhibition of NLRP3 inflammasome activation in PMA-differentiated and LPS/NIG-stimulated human THP-1 cells assessed as decrease in IL-1beta expression at 20 uM incubated for 1 hrs followed by LPS stimulation for 12 hrs and NIG addition for 2 hrs by western blot analysis; format: cell-based; conditions: time 15.0 hrs
[16] = target: NACHT, LRR and PYD domains-containing protein 3 (Homo sapiens) (UniProt Q96P20); experiment: Inhibition of NLRP3 inflammasome activation in PMA-differentiated and LPS/MSU-stimulated human THP-1 cells assessed as decrease in IL-1beta expression at 20 uM incubated for 1 hrs followed by LPS stimulation for 12 hrs and MSU addition for 6 hrs by western blot analysis; format: cell-based; conditions: time 19.0 hrs
[17] = target: NACHT, LRR and PYD domains-containing protein 3 (Homo sapiens) (UniProt Q96P20); experiment: Inhibition of NLRP3 inflammasome activation in PMA-differentiated and LPS/NIG-stimulated human THP-1 cells assessed as decrease in pro-caspase-1 expression at 20 uM incubated for 1 hrs followed by LPS stimulation for 12 hrs and NIG addition for 2 hrs by western blot analysis; format: cell-based; conditions: time 15.0 hrs
[18] = target: NACHT, LRR and PYD domains-containing protein 3 (Homo sapiens) (UniProt Q96P20); experiment: Inhibition of NLRP3 inflammasome activation in PMA-differentiated and LPS/MSU-stimulated human THP-1 cells assessed as decrease in pro-caspase-1 expression at 20 uM incubated for 1 hrs followed by LPS stimulation for 12 hrs and MSU addition for 6 hrs by western blot analysis; format: cell-based; conditions: time 19.0 hrs
[19] = target: NACHT, LRR and PYD domains-containing protein 3 (Homo sapiens) (UniProt Q96P20); experiment: as §1, with “assessed as increase in potassium ion concentration” for “suppression of P2X7 expression”, “EPG-2 AM staining based confocal microscopy” for “Western blot analysis”; format: cell-based; conditions: dose 5-20 µM, time 13.5 hrs
J774.A1 [20] = experiment: Antiinflammatory activity against LPS/ATP-stimulated […] cells assessed as inhibition of ROS release at 20 uM incubated for 1 hrs followed by LPS stimulation for 12 hrs and ATP addition for 0.5 hrs by DCFH-DA staining based confocal microscopy; format: functional, cell-based; conditions: Mus musculus, time 13.5 hrs

CC1(C)C(=O)C=C[C@]2(C)[C@H]3CC[C@@]4(C)[C@H](c5ccoc5)OC(=O)[C@H]5O[C@]54[C@]3(C)[C@H](O)C[C@@H]12 [DEACETYLGEDUNIN]
active: Activity (J774.A1 [1]) | inhibition [2] Dde | inhibition [3] | inhibition [4] | inhibition [5] | inhibition [6] | Activity (THP-1 [7]) | Activity (THP-1 [8]) | Activity (THP-1 [9]) | Activity (THP-1 [10]) | inhibition [11] | inhibition [12] | inhibition [13] | inhibition [14] | inhibition [15] | inhibition [16] | inhibition [17] | inhibition [18] | inhibition [19] | Activity (J774.A1 [20])
